Source: ChEMBL document CHEMBL1140067, “Synthesis, in vitro, and in vivo biological evaluation and molecular docking simulations of chiral alcohol and ether derivatives of the 1,5-diarylpyrrole scaffold as novel anti-inflammatory and analgesic agents” (Bioorg Med Chem, 2008)

How the values were obtained:
[1] = biological target: T1, Prostaglandin G/H synthase 1 (Mus musculus, UniProt P22437); assay: Inhibition of COX1 in arachidonic acid-stimulated mouse J774 cells assessed as inhibition of PGE2 production after 15 mins by radioimmunoassay; assay type: cell-based
T1 sequence (P22437 whole entry): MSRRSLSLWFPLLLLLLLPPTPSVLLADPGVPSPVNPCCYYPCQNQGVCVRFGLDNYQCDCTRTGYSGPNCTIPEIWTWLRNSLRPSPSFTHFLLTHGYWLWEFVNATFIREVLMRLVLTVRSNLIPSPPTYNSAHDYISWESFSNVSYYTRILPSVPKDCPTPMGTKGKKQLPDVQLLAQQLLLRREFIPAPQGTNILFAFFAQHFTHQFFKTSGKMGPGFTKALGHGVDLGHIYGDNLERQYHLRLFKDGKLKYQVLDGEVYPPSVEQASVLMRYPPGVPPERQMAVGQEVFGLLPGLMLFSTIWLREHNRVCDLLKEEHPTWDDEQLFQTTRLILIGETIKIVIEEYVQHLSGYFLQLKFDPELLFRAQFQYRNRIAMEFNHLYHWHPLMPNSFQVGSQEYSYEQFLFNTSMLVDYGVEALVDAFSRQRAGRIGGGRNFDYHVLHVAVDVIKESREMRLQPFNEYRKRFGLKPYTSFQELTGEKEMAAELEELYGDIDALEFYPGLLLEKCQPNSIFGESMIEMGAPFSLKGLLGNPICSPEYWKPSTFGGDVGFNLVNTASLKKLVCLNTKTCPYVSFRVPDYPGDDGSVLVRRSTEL

[2] = biological target: T2, Prostaglandin G/H synthase 2 (Mus musculus, UniProt Q05769)
T2 sequence (Q05769 whole entry): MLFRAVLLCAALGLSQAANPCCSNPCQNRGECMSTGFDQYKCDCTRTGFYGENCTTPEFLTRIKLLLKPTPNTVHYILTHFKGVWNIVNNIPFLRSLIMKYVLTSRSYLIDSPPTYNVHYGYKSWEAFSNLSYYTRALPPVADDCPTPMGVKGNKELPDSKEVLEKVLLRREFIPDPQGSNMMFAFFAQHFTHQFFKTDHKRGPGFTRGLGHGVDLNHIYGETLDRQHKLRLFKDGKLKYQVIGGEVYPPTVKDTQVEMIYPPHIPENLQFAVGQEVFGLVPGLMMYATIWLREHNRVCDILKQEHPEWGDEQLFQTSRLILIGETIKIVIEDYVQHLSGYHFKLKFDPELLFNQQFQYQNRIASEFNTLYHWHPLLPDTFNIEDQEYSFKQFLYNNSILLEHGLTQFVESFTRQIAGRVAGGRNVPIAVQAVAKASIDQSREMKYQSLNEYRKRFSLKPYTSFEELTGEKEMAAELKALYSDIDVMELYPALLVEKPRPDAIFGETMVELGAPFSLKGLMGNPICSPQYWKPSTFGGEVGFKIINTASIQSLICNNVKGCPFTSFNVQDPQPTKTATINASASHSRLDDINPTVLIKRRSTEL
Description: Inhibition of COX2 in LPS-stimulated mouse J774 cells assessed as inhibition of PGE2 production after 15 mins by radioimmunoassay

J774 = assay: Selectivity ratio of IC50 for COX1 in arachidonic acid-stimulated mouse J774 cells to IC50 for COX2 in LPS-stimulated mouse J774 cells; assay type: cell-based
[3] = biological target: T3, Prostaglandin G/H synthase 2 (Homo sapiens, UniProt P35354); assay: Inhibition of COX2 in human whole blood assessed as inhibition of TXB2 production by radioimmunoassay; assay type: tissue-based
T3 sequence (P35354 whole entry): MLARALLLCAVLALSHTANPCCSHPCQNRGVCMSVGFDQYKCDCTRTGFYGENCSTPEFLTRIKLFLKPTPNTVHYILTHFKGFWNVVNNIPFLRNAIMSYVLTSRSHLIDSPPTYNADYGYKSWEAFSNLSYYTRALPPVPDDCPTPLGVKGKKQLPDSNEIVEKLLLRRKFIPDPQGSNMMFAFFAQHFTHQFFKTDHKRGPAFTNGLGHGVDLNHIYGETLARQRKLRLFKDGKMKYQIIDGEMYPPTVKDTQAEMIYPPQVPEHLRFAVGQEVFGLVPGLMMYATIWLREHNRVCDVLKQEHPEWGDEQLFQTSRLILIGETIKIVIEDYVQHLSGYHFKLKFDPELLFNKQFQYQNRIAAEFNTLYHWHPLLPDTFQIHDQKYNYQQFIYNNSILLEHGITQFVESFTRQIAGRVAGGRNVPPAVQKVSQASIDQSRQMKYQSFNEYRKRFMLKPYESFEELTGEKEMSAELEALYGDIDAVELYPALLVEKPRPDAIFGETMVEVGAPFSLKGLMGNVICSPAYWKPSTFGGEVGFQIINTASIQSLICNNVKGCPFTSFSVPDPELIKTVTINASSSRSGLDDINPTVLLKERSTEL

Mus musculus [4] = assay: Analgesic activity against acetic acid-induced writhing in Swiss albino mouse assessed as number of writhes at 10 mg/kg, po administered 30 mins before test; assay type: functional
Rattus norvegicus [5] = assay: Analgesic activity against carrageenan-induced hyperalgesia in rat assessed as paw pressure at 20 mg/kg, po after 60 mins; assay type: functional
Mus musculus [6] = assay: Analgesic activity against acetic acid-induced writhing in Swiss albino mouse assessed as number of writhes at 20 mg/kg, po administered 30 mins before test; assay type: functional
Rattus norvegicus [7] = assay: Analgesic activity against carrageenan-induced hyperalgesia in rat assessed as paw pressure at 20 mg/kg, po after 120 mins; assay type: functional
[8] = biological target: Prostaglandin G/H synthase 1 (Homo sapiens, UniProt P23219); assay: Inhibition of COX1 in human whole blood assessed as inhibition of LPS-stimulated PGE2 production by radioimmunoassay; assay type: tissue-based
Sequence of Prostaglandin G/H synthase 1 (Homo sapiens, UniProt P23219) (P23219 whole entry): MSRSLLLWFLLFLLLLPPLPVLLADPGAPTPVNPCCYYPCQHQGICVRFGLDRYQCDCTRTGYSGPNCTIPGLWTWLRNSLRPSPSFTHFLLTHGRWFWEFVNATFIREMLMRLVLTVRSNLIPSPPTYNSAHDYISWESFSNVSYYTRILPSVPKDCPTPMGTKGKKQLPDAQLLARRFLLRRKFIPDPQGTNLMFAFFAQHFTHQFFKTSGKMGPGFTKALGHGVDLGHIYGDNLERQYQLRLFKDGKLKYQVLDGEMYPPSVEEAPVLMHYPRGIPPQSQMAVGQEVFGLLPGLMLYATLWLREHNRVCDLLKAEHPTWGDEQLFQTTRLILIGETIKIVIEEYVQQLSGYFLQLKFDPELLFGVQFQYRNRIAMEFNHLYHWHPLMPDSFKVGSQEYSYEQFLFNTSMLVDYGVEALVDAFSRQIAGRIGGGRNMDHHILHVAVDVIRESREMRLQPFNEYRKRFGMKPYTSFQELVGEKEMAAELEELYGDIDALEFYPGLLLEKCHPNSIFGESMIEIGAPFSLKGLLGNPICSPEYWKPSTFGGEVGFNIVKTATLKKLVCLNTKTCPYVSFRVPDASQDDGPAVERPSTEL

Rattus norvegicus [9] = assay: Antiinflammatory activity against carrageenan-induced paw edema in rat assessed as paw volume at 20 mg/kg, po administered 4 hrs post carrageenan challenge measured after 60 mins; assay type: functional
Mus musculus [10] = assay: Analgesic activity against acetic acid-induced writhing in po dosed Swiss albino mouse assessed as number of writhes administered 30 mins before test; assay type: functional, organism-based
Rattus norvegicus [11] = assay: Analgesic activity against carrageenan-induced hyperalgesia in rat assessed as paw pressure at 20 mg/kg, po after 30 mins; assay type: functional

SMILES	IC50 [1] [nM]	IC50 [2] [nM]	Ratio IC50 (J774)	other results
CCOC(=O)[C@@H](O)c1cc(-c2ccc(S(C)(=O)=O)cc2)n(-c2ccc(OC)cc2)c1C	> 100000			
CCOC(=O)C(O)c1cc(-c2ccc(S(C)(=O)=O)cc2)n(-c2ccc(OC)cc2)c1C (racemic)	> 100000			
CCc1cccc2c3c([nH]c12)C(CC)(CC(=O)O)OCC3 (configuration not stated) [ETODOLAC]				IC50 [3]: 2000 nM
CCOC(=O)[C@H](O)c1cc(-c2ccc(S(C)(=O)=O)cc2)n(-c2ccc(OC)cc2)c1C	> 100000			
CCOC(=O)C(O)c1cc(-c2ccc(S(C)(=O)=O)cc2)n(-c2ccccc2)c1C (racemic)	> 100000			
CCOC(=O)[C@H](O)c1cc(-c2ccc(S(C)(=O)=O)cc2)n(-c2ccccc2)c1C	> 100000			
CCOC(=O)C(O)c1cc(-c2ccc(S(C)(=O)=O)cc2)n(-c2cccc(F)c2)c1C (racemic)	> 100000	120	> 800	Activity (Mus musculus [4]): 26.3; Activity (Rattus norvegicus [5]): 45.2 g; Activity (Mus musculus [6]): 16.1; Activity (Rattus norvegicus [7]): 47.5 g; IC50 [8]: 21300 nM; IC50 [3]: 3800 nM; Activity (Rattus norvegicus [9]): 1.4 mL; Activity (Mus musculus [10]): Dose-dependent effect; Activity (Rattus norvegicus [11]): 54.8 g
CCOC(=O)[C@@H](O)c1cc(-c2ccc(S(C)(=O)=O)cc2)n(-c2ccccc2)c1C	> 100000			

Second part, led by results:

IC50 [1] [nM]	IC50 [2] [nM]	SMILES	Ratio IC50 (J774)	other results
> 100000	100	CCOC(=O)[C@@H](OCC)c1cc(-c2ccc(S(C)(=O)=O)cc2)n(-c2ccccc2)c1C	> 1000	
> 100000	100	CCOC(=O)C(OCC)c1cc(-c2ccc(S(C)(=O)=O)cc2)n(-c2cccc(F)c2)c1C (racemic)	> 1000	
> 100000	75	CCOC(=O)[C@H](O)c1cc(-c2ccc(S(C)(=O)=O)cc2)n(-c2cccc(F)c2)c1C	> 1300	
> 100000	250	CCOC(=O)[C@@H](OCC)c1cc(-c2ccc(S(C)(=O)=O)cc2)n(-c2cccc(F)c2)c1C	> 400	
> 100000	140	CCOC(=O)[C@H](OCC)c1cc(-c2ccc(S(C)(=O)=O)cc2)n(-c2ccccc2)c1C	> 700	
> 100000	130	CCOC(=O)C(OCC)c1cc(-c2ccc(S(C)(=O)=O)cc2)n(-c2ccc(OC)cc2)c1C (racemic)	> 800	
> 100000	1100	CCOC(=O)[C@@H](O)c1cc(-c2ccc(S(C)(=O)=O)cc2)n(-c2cccc(F)c2)c1C	> 90	
> 100000	810	CCOC(=O)[C@H](OCC)c1cc(-c2ccc(S(C)(=O)=O)cc2)n(-c2cccc(F)c2)c1C	> 100	
> 100000	140	CCOC(=O)[C@@H](OCC)c1cc(-c2ccc(S(C)(=O)=O)cc2)n(-c2ccc(OC)cc2)c1C	> 700	
> 100000	90	CCOC(=O)[C@H](OCC)c1cc(-c2ccc(S(C)(=O)=O)cc2)n(-c2ccc(OC)cc2)c1C	> 1100	
> 100000	180	CCOC(=O)C(OCC)c1cc(-c2ccc(S(C)(=O)=O)cc2)n(-c2ccccc2)c1C (racemic)	> 800	
